From article PMC12304826, “Redirecting the Peptide Cleavage Causes Protease Inactivation” (Angewandte Chemie (International Ed. in English), 2025)
Where two headings read alike, the source gives them in different places.

Columns and labels:
human cathepsin K = target: T1, human cathepsin K (Homo sapiens, UniProt P43235); assay: Cathepsin K inhibition assay (Cbz-Leu-Arg-AMC); format: biochemical; conditions: for kinac/Ki ± SE Cat K: five inhibitor concentrations, 60 min progress curves
T1 construct: purchased Enzo Life Sciences, Lörrach, Germany
T1 sequence (P43235 115-329): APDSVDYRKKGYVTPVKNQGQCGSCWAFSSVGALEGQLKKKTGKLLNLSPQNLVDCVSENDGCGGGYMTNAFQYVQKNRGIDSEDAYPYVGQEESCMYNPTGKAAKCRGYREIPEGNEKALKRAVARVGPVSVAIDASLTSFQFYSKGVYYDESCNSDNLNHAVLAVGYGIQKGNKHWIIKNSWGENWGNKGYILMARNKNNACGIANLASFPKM
Protocol: 1. Enzyme Inhibition Assays and Kinetic Data of Inhibition of Cathepsins B, L, K and S General. Human cathepsins were assayed either fluorimetrically or spectrophotometrically as noted below. The 10 mM inhibitor solutions were prepared in DMSO. The final concentration of DMSO in all assays was 2%. Non-linear regressions were conducted with GraFit 5. Residual cathepsin activity at an inhibitor concentration of 20 µM was determined from duplicate measurements based on the product formation after 60 min. Concentration dependent measurements were performed in duplicate measurements with five different inhibitor concentrations when the residual cathepsin activity in the presence of 20 µM inhibitor was below 70% (cathepsin B) or below 50% (cathepsins cathepsins L, K, and S). Progress curves were monitored for 60 min. First-order rate constants, kobs, were determined by non-linear regression following the equation [P] = vi × (1 – exp(-kobs × t))/kobs + d, where [P] is the product concentration, vi is the initial product formation rate, kobs is the observed first-order rate constant, and d is the offset. Mean values of kobs were plotted versus corresponding inhibitor concentrations [I], and second-order rate constants of inactivation, kinac/Ki, were obtained by linear regression. The equation kobs/[I] = (kinac/Ki)/(1 + [S]/Km) was used, where [S] is the substrate concentration and Km is the Michaelis-Menten constant. Standard errors (SE) refer to the linear regression. […] Cathepsin K inhibition assay.[1] Human recombinant cathepsin K (Enzo Life Sciences, Lörrach, Germany) was assayed fluorimetrically on a Monaco Safas spectrofluorometer flx or a Fluostar OPTIMA plate reader (BMG Labtech, Ortenberg, Germany). The wavelength for excitation was 360 nm and for emission 440 nm. The reactions were followed at 25 °C. A human cathepsin K stock solution of 23 µg/mL in 50 mM sodium acetate pH 5.5, 50 mM NaCl, 0.5 mM EDTA, 5 mM DTT was diluted 1:100 with assay buffer (100 mM sodium citrate pH 5.0, 100 mM NaCl, 1 mM EDTA, 0.01% CHAPS) containing 5 mM DTT and incubated for 30 min at 37 °C. A 10 mM stock solution of the 7-amino-4-methyl-coumarin (AMC)-based fluorogenic substrate Cbz-Leu-Arg-AMC was prepared in DMSO. The final concentration of the substrate was 40 μM (= 13.3 Km). When using the spectrofluorometer, into a cuvette containing 960 μL assay buffer, inhibitor solution and DMSO in a total volume of 16 μL, and 4 μL of the substrate solution were added and mixed. The reaction was initiated by adding 20 µL of the cathepsin K solution. When using the plate reader, into a well containing 192 µL assay buffer, inhibitor solution and DMSO in a total volume of 3.2 µL and 0.8 µL of the substrate solution were added and mixed. The reaction was initiated by adding 4 µL of the cathepsin K solution.
Cathepsin S inhibition assay.[2] […]
DTT, 0.5% Triton X-100 and 30% glycerol was diluted 1:100 with a 50 mM sodium phosphate buffer pH 6.5, 50 mM NaCl, 2 mM EDTA, 0.01% Triton X-100 and 5 mM DTT and incubated for 60 min at 37 °C. A 10 mM stock solution of the fluorogenic substrate Cbz-Phe-Arg-AMC was prepared in DMSO.
The assay was performed with a final substrate concentration of 40 µM (= 0.74 Km). When using the spectrofluorometer, into a cuvette containing 920 μL assay buffer, inhibitor solution and DMSO in a total volume of 16 μL, and 4 μL of the substrate solution were added and mixed. The reaction was initiated by adding 60 μL of the cathepsin S solution. When using the plate reader, into a well containing 188 µL assay buffer, inhibitor solution and DMSO in a total volume of 3.2 µL and 0.8 µL of the substrate solution were added and mixed. The reaction was initiated by adding […] of the cathepsin S solution.

human cathepsin L = target: T2, human cathepsin L (Homo sapiens, UniProt P07711); assay: Cathepsin L inhibition assay (Cbz-Phe-Arg-pNA); format: biochemical
T2 construct: purchased Enzo Life Sciences, Lörrach, Germany
Protocol: 1. Enzyme Inhibition Assays and Kinetic Data of Inhibition of Cathepsins B, L, K and S General. Human cathepsins were assayed either fluorimetrically or spectrophotometrically as noted below. The 10 mM inhibitor solutions were prepared in DMSO. The final concentration of DMSO in all assays was 2%. Non-linear regressions were conducted with GraFit 5. Residual cathepsin activity at an inhibitor concentration of 20 µM was determined from duplicate measurements based on the product formation after 60 min. Concentration dependent measurements were performed in duplicate measurements with five different inhibitor concentrations when the residual cathepsin activity in the presence of 20 µM inhibitor was below 70% (cathepsin B) or below 50% (cathepsins cathepsins L, K, and S). Progress curves were monitored for 60 min. First-order rate constants, kobs, were determined by non-linear regression following the equation [P] = vi × (1 – exp(-kobs × t))/kobs + d, where [P] is the product concentration, vi is the initial product formation rate, kobs is the observed first-order rate constant, and d is the offset. Mean values of kobs were plotted versus corresponding inhibitor concentrations [I], and second-order rate constants of inactivation, kinac/Ki, were obtained by linear regression. The equation kobs/[I] = (kinac/Ki)/(1 + [S]/Km) was used, where [S] is the substrate concentration and Km is the Michaelis-Menten constant. Standard errors (SE) refer to the linear regression. […] Cathepsin L inhibition assay.[1] Human isolated cathepsin L (Enzo Life Sciences, Lörrach, Germany) was assayed spectrophotometrically on a Cary 50 or 100 Bio, Varian, at 405 nm. The reactions were followed at 37 °C. Assay buffer was 100 mM sodium phosphate buffer pH 6.0, 100 mM NaCl, 5 mM EDTA, and 0.01% Brij 35. A stock solution of human cathepsin L of 135 μg/mL in 20 mM malonate buffer pH 5.5, 400 mM NaCl, and 1 mM EDTA was diluted 1:100 with assay buffer containing 5 mM DTT and incubated for 30 min at 37 °C. A 10 mM stock solution of the chromogenic substrate Cbz-Phe-Arg-pNA was prepared in DMSO. The final concentration of the substrate was 100 μM (= 5.88 Km).
Into a cuvette containing 940 μL assay buffer, inhibitor solution and DMSO in a total volume of 10 μL, and 10 μL of the substrate solution were added and mixed. The reaction was initiated by adding 40 μL of the cathepsin L solution.

[1] = 20 µM inhibitor, 60 min, read-out: Residual activity @ 20 µM (%) Cat K
[2] = 20 µM inhibitor, 60 min, read-out: Residual activity @ 20 µM (%) Cat L
[3] = inhibitor not soluble at 20 µM, calculated for 20 µM from IC50 at two lower concentrations, read-out: Residual activity @ 20 µM (%) Cat L, approximated [e]
[4] = inhibitor not soluble at 20 µM, calculated for 20 µM from IC50 at two lower concentrations, read-out: Residual activity @ 20 µM (%) Cat K, approximated [e]

T2 sequence (P07711 114-333): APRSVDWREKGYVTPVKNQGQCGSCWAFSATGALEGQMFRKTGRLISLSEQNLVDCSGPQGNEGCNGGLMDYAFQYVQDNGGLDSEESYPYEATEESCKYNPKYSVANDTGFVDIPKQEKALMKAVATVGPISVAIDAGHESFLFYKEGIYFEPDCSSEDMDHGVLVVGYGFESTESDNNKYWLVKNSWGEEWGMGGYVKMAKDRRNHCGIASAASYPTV

Work on CC(C)C[C@H](NC(=O)Oc1ccc(NC(=O)N(Cc2ccccc2)Cc2ccccc2)c(Br)c1)C(=O)N1CCC[C@H]1C(=O)O [Compound 26] yielded a remaining activity at 20 µM (human cathepsin K; [1]) of 83%.

With CC(C)CC(OC(=O)Nc1ccc(Cl)cc1)C(=O)N[C@@H](Cc1ccccc1)C(=O)O (stereo partly drawn) [Compound 16] the remaining activity at 20 µM (human cathepsin L; [2]) was 95% and the “kinac/Ki ± SE Cat K” value (human cathepsin K) was 185 M⁻¹ s⁻¹.

CC(C)C[C@H](NC(=O)Oc1ccc(Cl)cc1)C(=O)N[C@@H](Cc1ccccc1)C(=O)O [Compound 4] was tested, and the remaining activity at 20 µM (human cathepsin L; [2]) was 92% and the remaining activity at 20 µM (human cathepsin K; [1]) was 92%.

CC(C)C[C@@H](C(=O)N1CCC[C@H]1C(=O)O)N(C)C(=O)Oc1ccc(Cl)cc1 [Compound 15] was tested, and the remaining activity at 20 µM (human cathepsin L; [2]) was 97% and the remaining activity at 20 µM (human cathepsin K; [1]) was 91%.

Molecule CC(C)C[C@H](NC(=O)Nc1ccc(Cl)cc1)C(=O)N[C@@H](Cc1ccccc1)C(=O)O [Compound 18] has a remaining activity at 20 µM (human cathepsin L; [2]) of 94% and a remaining activity at 20 µM (human cathepsin K; [1]) of 87%.

O=C(NC(CC1CCCCC1)C(=O)NC(Cc1ccccc1)C(=O)O)Oc1ccc(NC(=O)C(Cc2ccccc2)Cc2ccccc2)c(Cl)c1 (stereo not drawn) [Compound 31] was tested, and the remaining activity at 20 µM (human cathepsin L; [3]) was 76% and the “kinac/Ki ± SE Cat K” value (human cathepsin K) was 23.1 M⁻¹ s⁻¹.

CC(C)CC(CNC(=O)Oc1ccc(Cl)cc1)C(=O)N[C@H](Cc1ccccc1)C(=O)O (stereo partly drawn) [Compound 5] showed a remaining activity at 20 µM (human cathepsin L; [2]) of 90% and a remaining activity at 20 µM (human cathepsin K; [1]) of 70%.

In the case of CC(C)C[C@H](NC(=O)Nc1ccc(Cl)cc1)C(=O)N1CCC[C@H]1C(=O)O [Compound 19], the remaining activity at 20 µM (human cathepsin L; [2]) is reported as 96% and the remaining activity at 20 µM (human cathepsin K; [1]) is reported as 92%.

In the case of CC(C)C[C@H](NC(=O)Oc1ccc(Cl)c(NC(=O)Cc2ccccc2)c1)C(=O)N1CCC[C@H]1C(=O)O [Compound 20], the remaining activity at 20 µM (human cathepsin L; [2]) is reported as 96% and the remaining activity at 20 µM (human cathepsin K; [1]) is reported as 82%.

For CC(C)C[C@H](NC(=O)Oc1ccc(Cl)cc1)C(=O)N1CCC[C@H]1C(=O)O [Compound 8], the remaining activity at 20 µM (human cathepsin L; [2]) was 97% and the remaining activity at 20 µM (human cathepsin K; [1]) was 91%.

CC(C)CC(CNC(=O)Oc1ccc(Cl)cc1)C(=O)N1CCC[C@@H]1C(=O)O (stereo partly drawn) [Compound 9] showed a remaining activity at 20 µM (human cathepsin L; [2]) of 95% and a remaining activity at 20 µM (human cathepsin K; [1]) of 85%.

For CC(C)CC(OC(=O)Nc1ccc(Cl)cc1)C(=O)N1CCC[C@H]1C(=O)O (stereo partly drawn) [Compound 17], the remaining activity at 20 µM (human cathepsin L; [2]) was 94% and the remaining activity at 20 µM (human cathepsin K; [1]) was 95%.

CC(C)CC(NC(=O)Oc1ccc(NC(=O)C(c2ccccc2)c2ccccc2)c(Cl)c1)C(=O)N1CCCC1C(=O)O (stereo not drawn) [Compound 28] was tested, and the remaining activity at 20 µM (human cathepsin L; [3]) was 62% and the remaining activity at 20 µM (human cathepsin K; [1]) was 83%.

CC(C)CC(NC(=O)Oc1ccc(Cl)c(NC(=O)C(c2ccccc2)c2ccccc2)c1)C(=O)N1CCCC1C(=O)O (stereo not drawn) [Compound 22] showed a remaining activity at 20 µM (human cathepsin L; [3]) of 59% and a remaining activity at 20 µM (human cathepsin K; [1]) of 87%.

CC(C)CC(NC(=O)Oc1ccc(NC(=O)c2ccc(-c3ccccc3)cc2)c(Cl)c1)C(=O)N1CCCC1C(=O)O (stereo not drawn) [Compound 25] gave a remaining activity at 20 µM (human cathepsin L; [2]) of 94% and a remaining activity at 20 µM (human cathepsin K; [4]) of 76%.

CC(C)CC(NC(=O)Oc1ccccc1)C(=O)NC(Cc1ccccc1)C(=O)O (stereo not drawn) [Compound 1] showed a remaining activity at 20 µM (human cathepsin L; [2]) of 94% and a remaining activity at 20 µM (human cathepsin K; [1]) of 77%.

For CC(C)C[C@H](NC(=O)Oc1ccc(-c2ccccc2)c(NC(=O)Cc2ccccc2)c1)C(=O)N1CCC[C@H]1C(=O)O [Compound 21], the remaining activity at 20 µM (human cathepsin L; [2]) was 92% and the remaining activity at 20 µM (human cathepsin K; [1]) was 73%.

Work on CC(C)C[C@H](NC(=O)Oc1ccc(Cl)cc1)C(=O)N[C@@H](Cc1ccccc1)C(=O)OC(C)(C)C [Compound 2] yielded a remaining activity at 20 µM (human cathepsin L; [2]) of 96% and a remaining activity at 20 µM (human cathepsin K; [1]) of 93%.

In the case of O=C(NC(CC1CCCCC1)C(=O)NC(Cc1ccccc1)C(=O)O)Oc1ccc(NC(=O)C(c2ccccc2)c2ccccc2)c(Cl)c1 (stereo not drawn) [Compound 30], the remaining activity at 20 µM (human cathepsin L; [3]) is reported as 64% and the “kinac/Ki ± SE Cat K” value (human cathepsin K) is reported as 3490 M⁻¹ s⁻¹.

Molecule CC(C)C[C@H](NC(=O)Oc1ccc(Cl)cc1)C(=O)N1CCCC[C@H]1C(=O)O [Compound 10] has a remaining activity at 20 µM (human cathepsin L; [2]) of 91% and a remaining activity at 20 µM (human cathepsin K; [1]) of 93%.

With COC(=O)C(Cc1ccccc1)NC(=O)C(CC(C)C)NC(=O)Oc1ccc(Cl)cc1 (stereo not drawn) [Compound 3] the remaining activity at 20 µM (human cathepsin L; [2]) was 85% and the remaining activity at 20 µM (human cathepsin K; [1]) was ≥ 98%.

Work on CC(C)C[C@H](NC(=O)Oc1ccc(NC(=O)Cc2ccccc2)c(Cl)c1)C(=O)N1CCC[C@H]1C(=O)O [Compound 24] yielded a remaining activity at 20 µM (human cathepsin L; [2]) of 97% and a remaining activity at 20 µM (human cathepsin K; [1]) of 95%.

O=C(NC(CC1CCCCC1)C(=O)NC(Cc1ccccc1)C(=O)O)Oc1ccc(Cl)cc1 (stereo not drawn) [Compound 7] showed a remaining activity at 20 µM (human cathepsin L; [2]) of 86% and a remaining activity at 20 µM (human cathepsin K; [1]) of 60%.

Work on CC(C)CC(NC(=O)Oc1ccc(NC(=O)C(c2ccccc2)c2ccccc2)c(Cl)c1)C(=O)NC(Cc1ccccc1)C(=O)O (stereo not drawn) [Compound 29] yielded a remaining activity at 20 µM (human cathepsin L; [3]) of 70% and a remaining activity at 20 µM (human cathepsin K; [4]) of 8%.

In the case of CC(C)C[C@H](NC(=O)Oc1cccc(Cl)c1)C(=O)N1CCC[C@H]1C(=O)O [Compound 23], the remaining activity at 20 µM (human cathepsin L; [2]) is reported as 92% and the remaining activity at 20 µM (human cathepsin K; [1]) is reported as 87%.

CC(C)CC(NC(=O)Oc1ccc(NC(=O)C(c2ccccc2)c2ccccc2)c(Br)c1)C(=O)N1CCCC1C(=O)O (stereo not drawn) [Compound 27] showed a remaining activity at 20 µM (human cathepsin L; [2]) of 81% and a remaining activity at 20 µM (human cathepsin K; [1]) of 90%.
